Literature values in patent publication US20160330969A1, “ANTIMICROBIAL COMPOSITIONS AND ARTICLES” (priority 2013, published 2016).

Conditions: decomposition to chlorite and chlorate species, pH 5-8 region

pH of maximum rate of decomposition: 6.89
SMILES: OCl [HOCl, hypochlorous acid]
